# Target: T1, Pol theta (1-899) (Homo sapiens, UniProt O75417)
# T1 construct: Pol theta (1-899) (5 nM) in assay buffer
# Assay: Pol theta ATPase activity, NADH oxidation-coupled enzymatic assay (ATPase NADH coupling: Standard Screening: hPolQ)
# Type: biochemical
# Conditions: Pol theta (1-899) 5 nM, NADH oxidation-coupled ATPase assay; compounds of Table 3
# Summary of the method: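 Rates of ATP hydrolysis taken from 60-min A340 traces of NADH oxidation via PK/LDH coupling, then fit four-parameter for IC50, Hill slope and max inhibition. Enzyme (5 nM, 1-899) and compounds preincubated 15 min before ATP 100 μM and 50-thymine ssDNA 300 nM (stock, equal volume added).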
# T1 sequence (O75417 1-899): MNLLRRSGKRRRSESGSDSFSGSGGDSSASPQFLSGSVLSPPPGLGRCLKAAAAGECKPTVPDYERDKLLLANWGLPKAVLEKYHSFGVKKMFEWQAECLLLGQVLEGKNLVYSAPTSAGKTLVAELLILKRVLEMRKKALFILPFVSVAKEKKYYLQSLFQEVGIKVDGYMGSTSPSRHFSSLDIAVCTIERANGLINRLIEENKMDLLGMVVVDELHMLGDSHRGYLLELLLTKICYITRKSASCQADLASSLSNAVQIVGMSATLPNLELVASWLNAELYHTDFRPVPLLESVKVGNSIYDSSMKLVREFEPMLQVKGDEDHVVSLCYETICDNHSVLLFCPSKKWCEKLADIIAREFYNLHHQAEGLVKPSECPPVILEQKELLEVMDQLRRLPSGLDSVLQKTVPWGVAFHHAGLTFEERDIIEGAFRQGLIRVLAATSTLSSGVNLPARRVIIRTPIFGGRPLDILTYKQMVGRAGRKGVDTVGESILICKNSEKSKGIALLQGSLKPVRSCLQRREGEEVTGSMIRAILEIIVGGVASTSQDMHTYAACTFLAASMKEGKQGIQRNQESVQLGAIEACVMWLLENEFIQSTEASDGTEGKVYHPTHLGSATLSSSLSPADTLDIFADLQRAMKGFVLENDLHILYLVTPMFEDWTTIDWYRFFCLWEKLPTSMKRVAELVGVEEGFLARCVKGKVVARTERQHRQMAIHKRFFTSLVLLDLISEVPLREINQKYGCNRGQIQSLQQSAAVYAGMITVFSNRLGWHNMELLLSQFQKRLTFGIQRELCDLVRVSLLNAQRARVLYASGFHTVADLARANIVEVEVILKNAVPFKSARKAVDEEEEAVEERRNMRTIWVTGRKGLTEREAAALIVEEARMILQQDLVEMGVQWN
row,Compound,IC50
1,"COc1nnc(NC(=O)c2cnc(C)cc2-c2cccc(C(=O)N(C)C)c2)s1 [Example 336, 4-[3-(dimethylcarbamoyl)phenyl]-N-(5-methoxy-1,3,4-thiadiazol-2-yl)-6-methylpyridine-3-carboxamide]",1 to 10 µM
2,"COc1nnc(NC(=O)c2cnc(C)cc2-c2ccc3[nH]ncc3c2)s1 [Example 487, 4-(1H-indazol-5-yl)-N-(5-methoxy-1,3,4-thiadiazol-2-yl)-6-methylnicotin amide]",0.5 to 1 µM
3,"COc1nnc(NC(=O)c2cnc(C)cc2-c2cc(C)c([S@+](C)[O-])cc2OC)s1 (single isomer, unassigned) [Example 307]",0.2 to 0.5 µM
4,"COc1nnc(NC(=O)c2cnc(C)cc2-c2ccccc2C(C)C)s1 [Example 392, N-(5-methoxy-1,3,4-thiadiazol-2-yl)-6-methyl-4-[2-(propan-2-yl)phenyl]pyridine-3-carboxamide]",1 to 10 µM
5,"COc1nnc(NC(=O)c2cnc(C)cc2-c2ccc(-c3ccccc3)cc2)s1 [Example 370, 4-{[1,1′-biphenyl]-4-yl}-N-(5-methoxy-1,3,4-thiadiazol-2-yl)-6-methylpyridine-3-carboxamide]",1 to 10 µM
6,"COc1nnc(NC(=O)c2cnc(C)cc2-c2ccc(C(F)(F)F)cc2)s1 [Example 355, N-(5-methoxy-1,3,4-thiadiazol-2-yl)-methyl4-(4-(trifluoromethyl)phenyl) nicotinamide]",1 to 10 µM
7,"COc1nnc(NC(=O)c2cnc(C)cc2-c2coc3ccccc23)s1 [Example 436, 4-(1-benzofuran-3-yl)-N-(5-methoxy-1,3,4-thiadiazol-2-yl)-6-methylpyridine-3-carboxamide]",1 to 10 µM
8,"COc1nnc(NC(=O)c2cnc(C)cc2-c2cccc(OC(F)(F)F)c2)s1 [Example 408, N-(5-methoxy-1,3,4-thiadiazol-2-yl)-6-methyl-4-[3-(trifluoromethoxy)phenyl]pyridine-3-carboxamide]",0.5 to 1 µM
9,"COc1nnc(NC(=O)c2cnc(C)cc2-c2cncc(C(N)=O)c2)s1 [Example 340, N3′-(5-methoxy-1,3,4-thiadiazol-2-yl)-6′-methyl-[3,4′-bipyridine]-3′,5-dicarboxamide]",1 to 10 µM
10,"CCc1ccc(-c2cc(C)ncc2C(=O)Nc2nnc(OC)s2)cc1 [Example 459, 4-(4-ethylphenyl)-N-(5-methoxy-1,3,4-thiadiazol-2-yl)-6-methylpyridine-3-carboxamide]",1 to 10 µM
11,"COc1ccc(-c2cc(C)ncc2C(=O)Nc2nnc(OC)s2)c(OC)c1 [Example 462, 4-(2,4-dimethoxyphenyl)-N-(5-methoxy-1,3,4-thiadiazol-2-yl)-6-methylpyridine-3-carboxamide]",0.2 to 0.5 µM
12,"COc1ccc(-c2cc(C)ncc2C(=O)Nc2nnc(OC)s2)c(OC)n1 [Example 435, 2,6-dimethoxy-N-(5-methoxy-1,3,4-thiadiazol-2-yl)-6′-methyl-[3,4′-bipyridine]-3′-carboxamide]",0.2 to 0.5 µM
13,"COc1nnc(NC(=O)c2cnc(C)cc2-c2cnc3[nH]ncc3c2)s1 [Example 357, N-(5-methoxy-1,3,4-thiadiazol-2-yl)-6-methyl-4-(1H-pyrazolo[3,4-b]pyridin-5-yl)nicotinamide]",1 to 10 µM
14,"COc1nnc(NC(=O)c2cnc(C)cc2-c2ccc(OC(F)F)cc2)s1 [Example 448, 4-[4-(difluoromethoxy)phenyl]-N-(5-methoxy-1,3,4-thiadiazol-2-yl)-6-methylpyridine-3-carboxamide]",1 to 10 µM

# Now from value to compound:
row,IC50,Compound
1,≤ 0.2 µM,"COc1cnc(C)c(F)c1-c1cc(C)ncc1C(=O)Nc1nnc(O[C@H]2C[C@H]3C[C@@H]2C[C@@H]3O)s1 (single isomer, unassigned) [Example 261]"
2,≤ 0.2 µM,"COc1nnc(NC(=O)c2cnc(C(F)F)cc2-c2cc(Cl)ncc2OC)s1 [Example 281, 2′-chloro-6-(difluoromethyl)-5′-methoxy-N-(5-methoxy-1,3,4-thiadiazol-2-yl)-[4,4′-bipyridine]-3-carboxamide]"
3,≤ 0.2 µM,"COc1cnc(C)c(F)c1-c1cc(C)ncc1C(=O)Nc1nnc(O[C@@H]2CO[C@H]3OCC[C@H]32)s1 (single isomer, unassigned) [Example 304]"
4,≤ 0.2 µM,"COc1nnc(NC(=O)c2cc(N3CCC3)ncc2-c2cc(Cl)ncc2OC)s1 [Example 323, 6-(azetidin-1-yl)-2′-chloro-5′-methoxy-N-(5-methoxy-1,3,4-thiadiazol-2-yl)-[3,4′-bipyridine]-4-carboxamide]"
5,1 to 10 µM,"COc1nnc(NC(=O)c2ccnc(C#N)c2-c2cc(Cl)ncc2OC)s1 [Example 289, 2′-chloro-2-cyano-5′-methoxy-N-(5-methoxy-1,3,4-thiadiazol-2-yl)-[3,4′-bipyridine]-4-carboxamide]"

# Same assay, conditions: Table 4; Pol theta (1-899) 5 nM, ATP, dT50 ssDNA
row,Compound,IC50
1,"COc1nnc(NC(=O)c2cn3ccnc3cc2-c2c(F)cccc2OC)s1 [Example 50, 7-(2-fluoro-6-methoxyphenyl)-N-(5-methoxy-1,3,4-thiadiazol-2-yl)imidazo(1,2-a)pyridine-6-carboxamide]",1 to 10 µM
2,"COc1nnc(NC(=O)c2cnc(C)cc2-c2cc(C)nnc2OC)s1 [Example 43, N-(5-methoxy-1,3,4-thiadiazol-2-yl)-4-(3-methoxy-6-methylpyridazin-4-yl)-6-methylnicotinamide]",0.2 to 0.5 µM

# Continued, values first:
row,IC50,Compound
1,≤ 0.2 µM,"CCc1cnc(Cl)cc1-c1cc(C)ncc1C(=O)Nc1nnc(OC)s1 [Example 49, 2′-chloro-5′-ethyl-N-(5-methoxy-1,3,4-thiadiazol-2-yl)-6-methyl-(4,4′-bipyridine)-3-carboxamide]"
2,≤ 0.2 µM,"COc1nnc(NC(=O)c2cnc(C)cc2-c2cc(C)ncc2OC(F)F)s1 [Example 52, 5′-(difluoromethoxy)-N-(5-methoxy-1,3,4-thiadiazol-2-yl)-2′,6-dimethyl-(4,4′-bipyridine)-3-carboxamide]"
3,≤ 0.2 µM,"COc1cnc(Cl)cc1-c1cc(C)ncc1C(=O)Nc1nnc(OC2CCS(=O)(=O)CC2)s1 [Example 25, 2′-chloro-N-(5-((1,1-dioxidotetrahydro-2H-thiopyran-4-yl)oxy)-1,3,4-thiadiazol-2-yl)-5′-methoxy-6-methyl-(4,4′-bipyridine)-3-carboxamide]"
4,0.2 to 0.5 µM,"COc1nnc(NC(=O)c2cnc(C)cc2-c2cc(C)ncc2C)s1 [Example 56, N-(5-methoxy-1,3,4-thiadiazol-2-yl)-2′,5′,6-trimethyl-(4,4′-bipyridine)-3-carboxamide]"
5,≤ 0.2 µM,"COc1cnc(Cl)cc1-c1cc(C)ncc1C(=O)Nc1nnc(OCC(C)(F)F)s1 [Example 20, 6′-chloro-N-(5-(2,2-difluoropropoxy)-1,3,4-thiadiazol-2-yl)-3′-methoxy-6-methyl-4,4′-bipyridine-3-carboxamide]"
6,≤ 0.2 µM,"COc1nnc(NC(=O)c2cnc(CO)cc2-c2cc(Cl)ncc2OC)s1 [Example 64, 2′-chloro-6-(hydroxymethyl)-5′-methoxy-N-(5-methoxy-1,3,4-thiadiazol-2-yl)-(4,4′-bipyridine)-3-carboxamide]"

# Same assay, conditions: Table 5; Pol theta (1-899) 5 nM, ATP, dT50 ssDNA
row,IC50,Compound
1,≤ 0.2 µM,"COc1cnc(Cl)cc1-c1cc(C)ncc1C(=O)Nc1nnc(O[C@H]2CC[C@@]3(CCO3)CC2)s1 (single isomer, unassigned) [Example 186, N-(5-(((4r,7r)-1-oxaspiro(3.5)nonan-7-yl)oxy)-1,3,4-thiadiazol-2-yl)-2′-chloro-5′-methoxy-6-methyl-(4,4′-bipyridine)-3-carboxamide]"
2,≤ 0.2 µM,"COc1cnc(Cl)cc1-c1cc(C)ncc1C(=O)Nc1nnc(O[C@H]2C[C@@H]3CC[C@H]2O3)s1 (single isomer, unassigned) [Example 217]"
3,≤ 0.2 µM,"COc1cnc(Cl)cc1-c1cc(C)ncc1C(=O)Nc1nnc(O[C@H]2CC[C@H]([C@@H](C)O)CC2)s1 (single isomer, unassigned) [Example 199]"
4,0.5 to 1 µM,"COc1nnc(NC(=O)c2cnc(OC3CC3)cc2-c2cc(Cl)ncc2OC)s1 [Example 196, 2′-chloro-6-cyclopropoxy-5′-methoxy-N-(5-methoxy-1,3,4-thiadiazol-2-yl)-(4,4′-bipyridine)-3-carboxamide]"
5,0.2 to 0.5 µM,"COc1nnc(NC(=O)c2cnc(C)cc2-c2ccnc(Cl)c2)s1 [Example 100, 2′-chloro-N-(5-methoxy-1,3,4-thiadiazol-2-yl)-6-methyl-(4,4′-bipyridine)-3-carboxamide]"
6,0.2 to 0.5 µM,"COc1nnc(NC(=O)c2cnc(C)cc2-c2cc3cn[nH]c3cc2OC)s1 [Example 104, N-(5-methoxy-1,3,4-thiadiazol-2-yl)-4-(6-methoxy-1H-indazol-5-yl)-6-methylnicotinamide]"
7,≤ 0.2 µM,"Cc1cc(-c2cc(Cl)ncc2OC(F)F)c(C(=O)Nc2nnc(O[C@H]3CC[C@H](O)CC3)s2)cn1 [Example 203, 2′-chloro-5′-(difluoromethoxy)-N-(5-(((1r,4r)-4-hydroxycyclohexyl)oxy)-1,3,4-thiadiazol-2-yl)-6-methyl-(4,4′-bipyridine)-3-carboxamide]"
8,≤ 0.2 µM,"COc1cnc(Cl)c(F)c1-c1cc(C)ncc1C(=O)Nc1nnc(O[C@@H]2CCO[C@H]2C)s1 (single isomer, unassigned) [Example 167]"
9,≤ 0.2 µM,"COc1cnc(Cl)cc1-c1cc(C)ncc1C(=O)Nc1nnc(O[C@@H]2CCC[C@H](O)C2)s1 (single isomer, unassigned) [Example 160]"
10,≤ 0.2 µM,"COc1cnc(Cl)cc1-c1cc(C)ncc1C(=O)Nc1nnc(O[C@@H]2C[C@H]3CC[C@@H]2O3)s1 (single isomer, unassigned) [Example 216]"
11,≤ 0.2 µM,"COc1cnc(Cl)cc1-c1cc(C)ncc1C(=O)Nc1nnc(O[C@H]2CC[C@](C)(O)CC2)s1 (single isomer, unassigned) [Example 140, 2′-chloro-N-(5-(((1r,4r)-4-hydroxy-4-methylcyclohexyl)oxy)-1,3,4-thiadiazol-2-yl)-5′-methoxy-6-methyl-(4,4′-bipyridine)-3-carboxamide]"

# Reference: patent US20240287080A1 (IDEAYA Biosciences Inc., priority 2021, published 2024)
